{
  "source": "ChEMBL document CHEMBL3611969",
  "about": "“The effect of complexation of 3-formylrifamycin SV macrocyclic ether derivatives with metal cations and small nitrogen-containing organic molecules on antibacterial activity against S. aureus and S. epidermidis” (Bioorg Med Chem Lett, 2015)",
  "key": {"Staphylococcus aureus [1]": {"tested_on": "Staphylococcus aureus", "experiment": "Antibacterial activity against Staphylococcus aureus ATCC 6538 after 18 hrs by serial microdilution method", "assay_type": "functional", "conditions": "ATCC 6538, 18 h"}, "Staphylococcus aureus [2]": {"tested_on": "Staphylococcus aureus", "experiment": "Antibacterial activity against Staphylococcus aureus ATCC 4163 after 18 hrs by serial microdilution method", "assay_type": "functional", "conditions": "ATCC 4163, 18 h"}, "Staphylococcus aureus [3]": {"tested_on": "Staphylococcus aureus", "experiment": "Antibacterial activity against Staphylococcus aureus ATCC 25923 after 18 hrs by serial microdilution method", "assay_type": "functional", "conditions": "ATCC 25923, 18 h"}, "[4]": {"tested_on": "Staphylococcus epidermidis", "experiment": "Antibacterial activity against Staphylococcus epidermidis ATCC 12228 after 18 hrs by serial microdilution method", "assay_type": "functional", "conditions": "ATCC 12228, 18 h"}, "[5]": {"tested_on": "Staphylococcus epidermidis", "experiment": "Antibacterial activity against Staphylococcus epidermidis ATCC 49134 after 18 hrs by serial microdilution method", "assay_type": "functional", "conditions": "ATCC 49134, 18 h"}, "[6]": {"experiment": "Solubility of the compound in water at pH 7", "assay_type": "physicochemical"}, "[7]": {"experiment": "Octanol-water partition coefficient, log P of the compound by UV-vis method", "assay_type": "physicochemical"}, "Staphylococcus aureus [8]": {"tested_on": "Staphylococcus aureus", "experiment": "Antibacterial activity against Staphylococcus aureus ATCC 6538 after 18 hrs by serial microdilution method in presence of Li+", "assay_type": "functional", "conditions": "ATCC 6538, 18 h"}, "Staphylococcus aureus [9]": {"tested_on": "Staphylococcus aureus", "experiment": "Antibacterial activity against Staphylococcus aureus ATCC 6538 after 18 hrs by serial microdilution method in presence of Na+", "assay_type": "functional", "conditions": "ATCC 6538, 18 h"}, "Staphylococcus aureus [10]": {"tested_on": "Staphylococcus aureus", "experiment": "Antibacterial activity against Staphylococcus aureus ATCC 4163 after 18 hrs by serial microdilution method in presence of Li+", "assay_type": "functional", "conditions": "ATCC 4163, 18 h"}, "Staphylococcus aureus [11]": {"tested_on": "Staphylococcus aureus", "experiment": "Antibacterial activity against Staphylococcus aureus ATCC 4163 after 18 hrs by serial microdilution method in presence of Na+", "assay_type": "functional", "conditions": "ATCC 4163, 18 h"}, "Staphylococcus aureus [12]": {"tested_on": "Staphylococcus aureus", "experiment": "Antibacterial activity against Staphylococcus aureus ATCC 25923 after 18 hrs by serial microdilution method in presence of Li+", "assay_type": "functional", "conditions": "ATCC 25923, 18 h"}, "Staphylococcus aureus [13]": {"tested_on": "Staphylococcus aureus", "experiment": "Antibacterial activity against Staphylococcus aureus ATCC 25923 after 18 hrs by serial microdilution method in presence of Na+", "assay_type": "functional", "conditions": "ATCC 25923, 18 h"}, "[14]": {"tested_on": "Staphylococcus epidermidis", "experiment": "Antibacterial activity against Staphylococcus epidermidis ATCC 12228 after 18 hrs by serial microdilution method in presence of Li+", "assay_type": "functional", "conditions": "ATCC 12228, 18 h"}, "[15]": {"tested_on": "Staphylococcus epidermidis", "experiment": "Antibacterial activity against Staphylococcus epidermidis ATCC 12228 after 18 hrs by serial microdilution method in presence of Na+", "assay_type": "functional", "conditions": "ATCC 12228, 18 h"}, "[16]": {"tested_on": "Staphylococcus epidermidis", "experiment": "Antibacterial activity against Staphylococcus epidermidis ATCC 49134 after 18 hrs by serial microdilution method in presence of Li+", "assay_type": "functional", "conditions": "ATCC 49134, 18 h"}, "[17]": {"tested_on": "Staphylococcus epidermidis", "experiment": "Antibacterial activity against Staphylococcus epidermidis ATCC 49134 after 18 hrs by serial microdilution method in presence of Na+", "assay_type": "functional", "conditions": "ATCC 49134, 18 h"}},
  "data": [
    {"smiles": "CO[C@H]1/C=C/O[C@@]2(C)Oc3c(C)c(O)c4c(O)c(c(CN5CCOCCOCCOCCOCC5)c(O)c4c3C2=O)NC(=O)/C(C)=C\\C=C\\[C@H](C)[C@H](O)[C@@H](C)[C@@H](O)[C@@H](C)[C@H](OC(C)=O)[C@@H]1C", "values": [
      {"measurement": "MIC", "setting": "Staphylococcus aureus [1]", "value": 4, "unit": "µg/mL"},
      {"measurement": "MIC", "setting": "Staphylococcus aureus [2]", "value": 4, "unit": "µg/mL"},
      {"measurement": "MIC", "setting": "Staphylococcus aureus [3]", "value": "> 4", "unit": "µg/mL"},
      {"measurement": "MIC", "setting": "[4]", "value": "> 4", "unit": "µg/mL"},
      {"measurement": "MIC", "setting": "[5]", "value": "> 4", "unit": "µg/mL"},
      {"measurement": "solubility", "setting": "[6]", "value": 1600, "unit": "µg/mL"},
      {"measurement": "logP", "setting": "[7]", "value": -0.92}
    ]},
    {"smiles": "CO[C@H]1/C=C/O[C@@]2(C)Oc3c(C)c(O)c4c(O)c(c(C=O)c(O)c4c3C2=O)NC(=O)/C(C)=C\\C=C\\[C@H](C)[C@H](O)[C@@H](C)[C@@H](O)[C@@H](C)[C@H](OC(C)=O)[C@@H]1C", "values": [
      {"measurement": "MIC", "setting": "Staphylococcus aureus [1]", "value": 0.5, "unit": "µg/mL"},
      {"measurement": "MIC", "setting": "Staphylococcus aureus [2]", "value": 0.5, "unit": "µg/mL"},
      {"measurement": "MIC", "setting": "Staphylococcus aureus [3]", "value": 0.5, "unit": "µg/mL"},
      {"measurement": "MIC", "setting": "[4]", "value": 0.125, "unit": "µg/mL"},
      {"measurement": "MIC", "setting": "[5]", "value": 0.125, "unit": "µg/mL"}
    ]},
    {"smiles": "CO[C@H]1/C=C/O[C@@]2(C)Oc3c(C)c(O)c4c(O)c(c(CN5CCOCCOCCOCCOCCOCC5)c(O)c4c3C2=O)NC(=O)/C(C)=C\\C=C\\[C@H](C)[C@H](O)[C@@H](C)[C@@H](O)[C@@H](C)[C@H](OC(C)=O)[C@@H]1C", "values": [
      {"measurement": "MIC", "setting": "Staphylococcus aureus [1]", "value": 4, "unit": "µg/mL"},
      {"measurement": "MIC", "setting": "Staphylococcus aureus [2]", "value": 4, "unit": "µg/mL"},
      {"measurement": "MIC", "setting": "Staphylococcus aureus [3]", "value": "> 4", "unit": "µg/mL"},
      {"measurement": "MIC", "setting": "[4]", "value": 2, "unit": "µg/mL"},
      {"measurement": "MIC", "setting": "[5]", "value": 2, "unit": "µg/mL"},
      {"measurement": "solubility", "setting": "[6]", "value": 1200, "unit": "µg/mL"},
      {"measurement": "logP", "setting": "[7]", "value": -0.54}
    ]},
    {"smiles": "[Li+].[O-][Cl+3]([O-])([O-])[O-]", "values": [
      {"measurement": "MIC", "setting": "Staphylococcus aureus [1]", "value": "> 4", "unit": "µg/mL"},
      {"measurement": "MIC", "setting": "Staphylococcus aureus [2]", "value": "> 4", "unit": "µg/mL"},
      {"measurement": "MIC", "setting": "Staphylococcus aureus [3]", "value": "> 4", "unit": "µg/mL"},
      {"measurement": "MIC", "setting": "[4]", "value": "> 4", "unit": "µg/mL"},
      {"measurement": "MIC", "setting": "[5]", "value": "> 4", "unit": "µg/mL"}
    ]},
    {"smiles": "CO[C@H]1/C=C/O[C@@]2(C)Oc3c(C)c(O)c4c(O)c(c(CNC5CCOCC5)c(O)c4c3C2=O)NC(=O)/C(C)=C\\C=C\\[C@H](C)[C@H](O)[C@@H](C)[C@@H](O)[C@@H](C)[C@H](OC(C)=O)[C@@H]1C", "values": [
      {"measurement": "MIC", "setting": "Staphylococcus aureus [1]", "value": 0.5, "unit": "µg/mL"},
      {"measurement": "MIC", "setting": "Staphylococcus aureus [2]", "value": 0.5, "unit": "µg/mL"},
      {"measurement": "MIC", "setting": "Staphylococcus aureus [3]", "value": 0.5, "unit": "µg/mL"},
      {"measurement": "MIC", "setting": "[4]", "value": 0.25, "unit": "µg/mL"},
      {"measurement": "MIC", "setting": "[5]", "value": 0.25, "unit": "µg/mL"},
      {"measurement": "solubility", "setting": "[6]", "value": 500, "unit": "µg/mL"},
      {"measurement": "logP", "setting": "[7]", "value": 2.05}
    ]},
    {"smiles": "NCc1ccccc1Cl", "values": [
      {"measurement": "MIC", "setting": "Staphylococcus aureus [1]", "value": "> 4", "unit": "µg/mL"},
      {"measurement": "MIC", "setting": "Staphylococcus aureus [2]", "value": "> 4", "unit": "µg/mL"},
      {"measurement": "MIC", "setting": "Staphylococcus aureus [3]", "value": "> 4", "unit": "µg/mL"},
      {"measurement": "MIC", "setting": "[4]", "value": "> 4", "unit": "µg/mL"},
      {"measurement": "MIC", "setting": "[5]", "value": "> 4", "unit": "µg/mL"}
    ]},
    {"smiles": "CO[C@H]1/C=C/O[C@@]2(C)Oc3c(C)c(O)c4c(O)c(c(CNCC5COCCOCCOCCOCCO5)c(O)c4c3C2=O)NC(=O)/C(C)=C\\C=C\\[C@H](C)[C@H](O)[C@@H](C)[C@@H](O)[C@@H](C)[C@H](OC(C)=O)[C@@H]1C", "note": "(stereo partly drawn)", "values": [
      {"measurement": "MIC", "setting": "Staphylococcus aureus [1]", "value": 2, "unit": "µg/mL"},
      {"measurement": "MIC", "setting": "Staphylococcus aureus [8]", "value": "> 4", "unit": "µg/mL"},
      {"measurement": "MIC", "setting": "Staphylococcus aureus [9]", "value": 2, "unit": "µg/mL"},
      {"measurement": "MIC", "setting": "Staphylococcus aureus [2]", "value": 4, "unit": "µg/mL"},
      {"measurement": "MIC", "setting": "Staphylococcus aureus [10]", "value": 4, "unit": "µg/mL"},
      {"measurement": "MIC", "setting": "Staphylococcus aureus [11]", "value": "> 4", "unit": "µg/mL"},
      {"measurement": "MIC", "setting": "Staphylococcus aureus [3]", "value": "> 4", "unit": "µg/mL"},
      {"measurement": "MIC", "setting": "Staphylococcus aureus [12]", "value": "> 4", "unit": "µg/mL"},
      {"measurement": "MIC", "setting": "Staphylococcus aureus [13]", "value": "> 4", "unit": "µg/mL"},
      {"measurement": "MIC", "setting": "[4]", "value": 2, "unit": "µg/mL"},
      {"measurement": "MIC", "setting": "[14]", "value": 2, "unit": "µg/mL"},
      {"measurement": "MIC", "setting": "[15]", "value": 4, "unit": "µg/mL"},
      {"measurement": "MIC", "setting": "[5]", "value": 2, "unit": "µg/mL"},
      {"measurement": "MIC", "setting": "[16]", "value": 2, "unit": "µg/mL"},
      {"measurement": "MIC", "setting": "[17]", "value": 4, "unit": "µg/mL"},
      {"measurement": "solubility", "setting": "[6]", "value": 120, "unit": "µg/mL"},
      {"measurement": "logP", "setting": "[7]", "value": 1.18}
    ]},
    {"smiles": "NCCc1c[nH]cn1", "note": "[HISTAMINE]", "values": [
      {"measurement": "MIC", "setting": "Staphylococcus aureus [1]", "value": "> 4", "unit": "µg/mL"},
      {"measurement": "MIC", "setting": "Staphylococcus aureus [2]", "value": "> 4", "unit": "µg/mL"},
      {"measurement": "MIC", "setting": "Staphylococcus aureus [3]", "value": "> 4", "unit": "µg/mL"},
      {"measurement": "MIC", "setting": "[4]", "value": "> 4", "unit": "µg/mL"},
      {"measurement": "MIC", "setting": "[5]", "value": "> 4", "unit": "µg/mL"}
    ]}
  ]
}
